Reference: US20160220510A1, “ANTIBIOTIC COMPOUNDS THAT INHIBIT BACTERIAL PROTEIN SYNTHESIS” (The Board of Regents of the University of Texas System, priority 2015, published 2016)
pIC50: −log10 of the molar value. In brackets after ≈: the same amount, converted by molar mass. Where a name gives a salt, the structure may show the parent alone. Read-outs that look alike come from different tables or passages of the source.

How the values were obtained:
ribosome = assay: Determination of molecular target (ribosome by default); type: biochemical, Pseudomonas aeruginosa; settings: no accessory protein inhibited
Description: Nitrocellulose binding assays were used to determine inhibition of GDP exchange by EF-Tu as previously described in Bullard et al. “Effects of domain exchanges between Escherichia coli and mammalian mitochondrial EF-Tu on interactions with guanine nucleotides, aminoacyl-tRNA and ribosomes” 1999, Biochim. Biophys. Acta 1446:102-114, which is incorporated herein by reference, with the exception that the enzyme (1 μM) was pre-incubated with 132 μM compound for 15 min prior to the addition of [^3H]GDP. EF-Ts stimulates the exchange of GDP bound by EF-Tu. The ability of compounds to inhibit EF-Ts stimulation of GDP exchange by EF-Tu was measured in assays as described for EF-Tu/GDP exchange with the exceptions that EF-Ts was present at 0.05 μM and the time for the reaction was decreased from 30 min to 30 sec.
Assays for ribosome-dependent GTP hydrolysis by EF-G were carried out in 50 μl reactions containing: 50 mM Tris-HCl (pH 7.5), 10 mM MgCl2, 70 mM NH4Cl, 1 mM dithiothreitol (DTT), 1.8 mM GTP, 0.4 μM P. aeruginosa ribosomes and 0.2 μM EF-G. Final concentrations of compounds in the assays were 132 μM. The amount of GTPase activity was determined by measurement of the amount of Pi liberated using a colorimetric GTPase assay kit (Novus Biologicals) per manufacturer's directions.

[1] = system: P. aeruginosa aminoacylation/translation (A/T) protein synthesis system (ribosomes, PheRS, EF-Tu, EF-Ts, EF-G); assay: aminoacylation/translation (A/T) scintillation proximity assay; type: biochemical, Pseudomonas aeruginosa; settings: all P. aeruginosa components
Description: A scintillation proximity assay (SPA) was developed using P. aeruginosa components for the aminoacylation/translation (A/T) assay as described in Ribble et al. The complete assay (50 μl) contained 50 mM Tris-HCl (pH 7.5), 25 mM KCl, 10 mM MgCl2, 0.03 mM spermine, 1.5 mM ATP, 0.5 mM GTP, 40 μM [^3H]Phenylalanine (Phe) (75 cpm/pmol) and 0.3 mg/ml polyU mRNA. To maintain constant levels of ATP and GTP the assay contained a nucleotide regeneration system composed of 4 mM phosphoenolpyruvate (PEP) and 0.025 Units/μl pyruvate kinase (PK). The concentration of ribosomes and proteins in the assay were as follows: ribosome (0.2 μM), PheRS (0.1 μM), EF-Tu (1 μM), EF-Ts (0.05 μM) and EF-G (0.2 μM). These concentrations were arrived at through sequential rounds of optimization: each concentration represents the concentration just below the saturation point for each component of the reaction in the titration.
The screening reactions were carried out in 96 well microtiter plates (Costar). Test compounds were equilibrated by addition of 33 μl of the protein/substrate mix (without tRNA) to 2 μl of chemical compound (3.2 mM) dissolved in 100% DMSO. […] Reactions were stopped by the addition of 5 μl of 0.5 M EDTA. 200 μg of SPA beads (RNA Binding Beads (YSI), Perkin Elmer) in 150 μl of 300 mM citrate buffer (pH 6.2) were added. The plates were analyzed using a 1450 Microbeta (Jet) liquid scintillation and luminescence counter (Wallac). Assays to determine IC50 values were as described above with the test compounds serially diluted from 200 μM to 0.4 μM. The concentration ranges of antibiotics as controls were as follows: spiramycin (0.02 μM to 20.0 μM), tylosin (0.02 μM to 20.0 μM), and fusidic acid (4 μM to 512 μM).

P. aeruginosa PheRS = P. aeruginosa PheRS (Pseudomonas aeruginosa, UniProt Q9I0A3+Q9I0A4); assay: PheRS tRNA aminoacylation SPA assay; type: biochemical; settings: for Inhibition of Phenylalanyl-tRNA synthetase (PheRS), target found: 132 μM compound
P. aeruginosa PheRS, sequence (Q9I0A3 whole entry): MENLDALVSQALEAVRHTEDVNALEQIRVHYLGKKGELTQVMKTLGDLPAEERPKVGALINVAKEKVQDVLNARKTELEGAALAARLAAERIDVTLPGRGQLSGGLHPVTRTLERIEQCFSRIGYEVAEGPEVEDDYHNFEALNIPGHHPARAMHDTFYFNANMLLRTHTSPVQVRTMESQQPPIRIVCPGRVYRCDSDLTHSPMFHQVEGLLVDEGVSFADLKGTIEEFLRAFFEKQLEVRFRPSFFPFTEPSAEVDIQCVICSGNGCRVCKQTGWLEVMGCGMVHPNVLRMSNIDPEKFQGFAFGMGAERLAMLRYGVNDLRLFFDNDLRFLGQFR
P. aeruginosa PheRS, sequence (Q9I0A4 whole entry): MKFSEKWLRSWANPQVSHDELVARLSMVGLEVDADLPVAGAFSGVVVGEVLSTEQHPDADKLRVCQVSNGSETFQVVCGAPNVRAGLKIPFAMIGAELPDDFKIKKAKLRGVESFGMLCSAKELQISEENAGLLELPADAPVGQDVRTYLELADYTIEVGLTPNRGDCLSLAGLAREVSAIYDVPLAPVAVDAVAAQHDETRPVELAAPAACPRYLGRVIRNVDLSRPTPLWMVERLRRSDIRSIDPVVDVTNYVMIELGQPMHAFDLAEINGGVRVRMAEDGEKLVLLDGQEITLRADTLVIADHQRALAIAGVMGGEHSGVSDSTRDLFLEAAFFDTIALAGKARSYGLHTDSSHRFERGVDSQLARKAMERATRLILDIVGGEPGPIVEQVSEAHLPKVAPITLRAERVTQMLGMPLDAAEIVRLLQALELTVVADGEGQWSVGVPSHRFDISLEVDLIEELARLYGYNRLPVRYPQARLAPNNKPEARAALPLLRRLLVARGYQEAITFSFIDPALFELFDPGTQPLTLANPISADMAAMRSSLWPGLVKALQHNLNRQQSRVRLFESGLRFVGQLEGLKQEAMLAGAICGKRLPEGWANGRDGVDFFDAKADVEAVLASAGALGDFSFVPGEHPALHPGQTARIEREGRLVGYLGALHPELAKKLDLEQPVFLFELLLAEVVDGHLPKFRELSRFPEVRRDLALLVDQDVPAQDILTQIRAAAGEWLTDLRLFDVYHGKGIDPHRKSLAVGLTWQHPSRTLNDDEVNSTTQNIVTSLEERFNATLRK
Description: SPA assays to determine inhibition of PheRS by chemical compounds were as described in Bullard et al. “Expression and characterization of a human mitochondrial phenylalanyl-tRNA synthetase” 1999, J. Mol. Biol. 288:567-577, which his incorporated herein by reference and in Ribble et al. Exceptions were that the enzyme mix was pre-incubated with 132 μM compound for 15 min prior to addition of tRNA. The reactions were stopped by the addition of 5 μl of 0.5 M EDTA. 400 μg of SPA beads (Ysi poly-L-lysine coated beads, Perkin Elmer) in 150 μl of 300 mM citrate buffer (pH 2.0) were added and the plates were analyzed as above.

E. coli (ATCC 25922) = assay: Broth microdilution MIC; type: cell-based; settings: Escherichia coli
E. coli tolC mutant = assay: Broth microdilution MIC; type: cell-based; settings: Escherichia coli, read-out: MIC E. coli tolC (efflux)
[2] = system: Enterococcus faecalis (ATCC 29212); assay: Broth microdilution MIC; type: cell-based
[3] = system: Haemophilus influenzae (ATCC 49766); assay: Broth microdilution MIC; type: cell-based; settings: ATCC49766
[4] = system: Moraxella catarrhalis (ATCC 25238); assay: Broth microdilution MIC; type: cell-based; settings: ATCC25238
[5] = system: Pseudomonas aeruginosa (ATCC 47085); assay: Broth microdilution MIC; type: cell-based
[6] = system: Pseudomonas aeruginosa hypersensitive strain (ATCC 35151); assay: Broth microdilution MIC; type: cell-based; settings: ATCC35151, read-out: MIC P. aeruginosa (hypersensitive)
[7] = system: Staphylococcus aureus (ATCC 29213); assay: Broth microdilution MIC; type: cell-based; settings: ATCC29213, read-out: MIC S. aureus
[8] = system: Streptococcus pneumonia (ATCC 49619); assay: Broth microdilution MIC; type: cell-based; settings: Streptococcus pneumoniae
[9] = system: Gram (+) bacteria (E. faecalis or S. aureus); assay: Time-kill experiments, Gram (+); settings: four-times the MIC, 0 to 24 hours
Description: (§1) Time-kill experiments were performed according to the CLSI guidelines M26-A. H. influenzae (ATCC 49766), E. faecalis ATCC 29212, and Staphylococcus aureus (ATCC 29213) were from the American Type Culture Collection (Manassas, Va.). Growth media were Brain Heart Infusion and Trypticase Soy Broth from Remel (Lenexa, Kans.). For the experiments, 10 mL of broth medium was inoculated with 0.1 mL of a fresh overnight culture and grown at 35° C. with shaking (200 rpm) for 2-3 hours. Pre-warmed flasks containing 10 mL of medium alone or 10 mL of medium containing a test compound at 4×MIC were then inoculated with 0.1 mL of the exponentially growing cultures. Samples were removed at 0, 2, 4, 6, and 24 h, and serial dilutions were plated on blood agar to allow for colony enumeration and calculation of the live cell density.
(§2) Time-kill experiments were performed according to the CLSI guideline M26-A to determine the efficacy against both Gram (+) and a Gram (−) organisms. […] The Gram (+) bacteria used was either E. faecalis or S. aureus, while the Gram (−) bacteria was H. influenzae. […] The compounds were tested in these assays at four-times the MIC and between 0 and 24 hours.

H. influenzae = assay: Time-kill experiments, Gram (−); settings: four-times the MIC, 0 to 24 hours
Description: as §1, §2

[10] = ATCC25922, ATCC 25922, read-out: MIC E. coli
[11] = ATCC29212, ATCC 29212, read-out: MIC E. faecalis
[12] = ATCC47085, ATCC 47085, read-out: MIC P. aeruginosa
[13] = ATCC49619, ATCC 49619, read-out: MIC S. pneumo

`NC(N)=NN=C(/C=C/c1ccc([N+](=O)[O-])o1)/C=C/c1ccc([N+](=O)[O-])o1` [2-[1,5-bis(5-nitrofuran-2-yl)penta-1,4-dien-3-ylideneamino]guanidine hydrochloride] was tested, and the “Target found: ribosomal inhibitor” value (ribosome) was “ribosomal inhibitor”.

In the case of `O=C(/C=C/c1ccccc1)c1ccc(O)cc1O` [Class 1, (2E)-1-(2,4-Dihydroxyphenyl)-3-phenyl-2-propen-1-one], the pIC50 [1] was 4.48, the pIC50 (P. aeruginosa PheRS) was 4.43 and the “Inhibition of Phenylalanyl-tRNA synthetase (PheRS), target found” value (“Inhibition” below) (P. aeruginosa PheRS) was “inhibit”. The MIC (E. coli (ATCC 25922); ATCC25922, read-out: MIC E. coli) was > 128 µg/mL, the MIC (E. coli tolC mutant) was > 128 µg/mL and the MIC ([2]; ATCC29212, read-out: MIC E. faecalis) was > 128 µg/mL. The MIC [3] was 32 µg/mL (≈ 133 µM), the MIC [4] was 64 µg/mL (≈ 266 µM) and the MIC ([5]; ATCC47085, read-out: MIC P. aeruginosa) was > 128 µg/mL. The MIC [6] was > 128 µg/mL, the MIC [7] was 128 µg/mL (≈ 533 µM) and the MIC ([8]; ATCC49619, read-out: MIC S. pneumo) was > 128 µg/mL. The “Time-kill mode of action against Gram (+) bacteria” value (from here on “Time-kill mode … (+) bacteria”) [9] was “bactericidal” and the “Time-kill mode of action against Gram (−) bacteria” value (“Time-kill mode … (−) bacteria” below) (H. influenzae) was “bactericidal”.

With `COC(=O)c1c(C)c2c(c(C)c1O)OC(=O)c1c(C)c(Cl)c(O)c(Cl)c1O2` [Class 2, Methyl 2,4-dichloro-3,8-dihydroxy-1,6,9-trimethyl-11-oxo-11H-dibenzo[b,e][1,4]dioxepine-7-carboxylate] the pIC50 [1] was 4.23, the pIC50 (P. aeruginosa PheRS) was 5.01 and the “Inhibition” value (P. aeruginosa PheRS) was “inhibit”. The MIC (E. coli (ATCC 25922); [10]) was > 128 µg/mL, the MIC (E. coli tolC mutant) was 16 µg/mL (≈ 38.7 µM) and the MIC [2, 11] was 8 µg/mL (≈ 19.4 µM). For the same compound, the MIC [3] was 32 µg/mL (≈ 77.4 µM), the MIC [4] was 1 µg/mL (≈ 2.42 µM) and the MIC [5, 12] was 128 µg/mL (≈ 310 µM). For the same compound, the MIC [6] was 8 µg/mL (≈ 19.4 µM), the MIC [7] was 128 µg/mL (≈ 310 µM) and the MIC [8, 13] was 64 µg/mL (≈ 155 µM). The “Time-kill mode … (+) bacteria” value [9] was “bacteriostatic” and the “Time-kill mode … (−) bacteria” value (H. influenzae) was “bacteriostatic”.

In the case of `O=C(N/N=C/c1ccc([N+](=O)[O-])o1)c1cc([N+](=O)[O-])cc([N+](=O)[O-])c1O` [Class 4, N-[(1E)-2-(5-nitro(2-furyl))-1-azavinyl](2-hydroxy-3,5-dinitrophenyl)carboxamide], the pIC50 [1] was 4.30, the pIC50 (P. aeruginosa PheRS) was 4.40 and the MIC (E. coli (ATCC 25922); [10]) was > 128 µg/mL. The MIC (E. coli tolC mutant) was 2 µg/mL (≈ 5.48 µM), the MIC [2, 11] was 128 µg/mL (≈ 350 µM) and the MIC [3] was 32 µg/mL (≈ 87.6 µM). For the same compound, the MIC [4] was 32 µg/mL (≈ 87.6 µM), the MIC [5, 12] was 32 µg/mL (≈ 87.6 µM) and the MIC [6] was 32 µg/mL (≈ 87.6 µM). The MIC [7] was 32 µg/mL (≈ 87.6 µM), the MIC [8, 13] was 128 µg/mL (≈ 350 µM) and the “Time-kill mode … (+) bacteria” value [9] was “bacteriostatic”. For the same compound, the “Time-kill mode … (−) bacteria” value (H. influenzae) was “bacteriostatic”.

`NC(N)=NN=C(/C=C/c1ccc([N+](=O)[O-])o1)/C=C/c1ccc([N+](=O)[O-])o1` [Class 5, 2-[1,5-bis(5-nitrofuran-2-yl)penta-1,4-dien-3-ylideneamino]guanidine hydrochloride] was tested, and the pIC50 [1] was 4.56, the MIC (E. coli (ATCC 25922); [10]) was > 128 µg/mL and the MIC (E. coli tolC mutant) was 2 µg/mL. For the same compound, the MIC [2, 11] was 128 µg/mL, the MIC [3] was 16 µg/mL and the MIC [4] was 64 µg/mL. For the same compound, the MIC [5, 12] was 128 µg/mL, the MIC [6] was 4 µg/mL and the MIC [7] was 16 µg/mL. For the same compound, the MIC [8, 13] was 32 µg/mL, the “Time-kill mode … (+) bacteria” value [9] was “bactericidal” and the “Time-kill mode … (−) bacteria” value (H. influenzae) was “bactericidal”.

`Cc1cc(C)nc(NC(=N)Nc2ccc(OCc3ccc(Cl)cc3)cc2)n1` [Class 6, (4,6-dimethylpyrimidin-2-yl)[({4-[(4-chlorophenyl)methoxy]phenyl}amino)iminomethyl]amine] gave a pIC50 [1] of 4.59, an MIC (E. coli (ATCC 25922); [10]) of 64 µg/mL (≈ 168 µM) and an MIC (E. coli tolC mutant) of 16 µg/mL (≈ 41.9 µM). For the same compound, the MIC [2, 11] was 16 µg/mL (≈ 41.9 µM), the MIC [3] was 32 µg/mL (≈ 83.8 µM) and the MIC [4] was 64 µg/mL (≈ 168 µM). For the same compound, the MIC [5, 12] was 64 µg/mL (≈ 168 µM), the MIC [6] was 16 µg/mL (≈ 41.9 µM) and the MIC [7] was 32 µg/mL (≈ 83.8 µM). For the same compound, the MIC [8, 13] was 32 µg/mL (≈ 83.8 µM), the “Target found: ribosomal inhibitor” value (ribosome) was “ribosomal inhibitor” and the “Time-kill mode … (+) bacteria” value [9] was “bactericidal”. The “Time-kill mode … (−) bacteria” value (H. influenzae) was “bactericidal”.

`O=C(N/N=C/c1ccc([N+](=O)[O-])o1)c1cc([N+](=O)[O-])cc([N+](=O)[O-])c1O` [N-[(1E)-2-(5-nitro(2-furyl))-1-azavinyl](2-hydroxy-3,5-dinitrophenyl)carboxamide] was tested, and the “Inhibition” value (P. aeruginosa PheRS) was “inhibit”.
